Reference: BindingDB's records for PubMed 35653695 (Ecole Polytechnique F?d?rale de Lausanne …, 2022)

Experiment: Inhibition of mouse KLK5 assessed as inhibition constant using Boc-VPR-AMC as fluorogenic substrate incubated for 30 mins by fluorescence plate reader assay

- Ki: 1.4 nM
Structure (SMILES): CCCCCCCCCCCCCCCC(=O)NCCCC[C@H](NC(=O)[C@H](CCC(=O)O)NC(=O)[C@H](Cc1ccc(O)cc1)NC(=O)[C@H](CCC(=O)O)NC(=O)COCCOCCNC(=O)c1ccc(-c2c3ccc(=O)cc-3oc3cc(O)ccc23)c(C(=O)O)c1)C(=O)N[C@@H](CCC(=O)O)C(=O)N[C@@H](Cc1ccc(O)cc1)C(=O)N[C@@H](CCC(=O)O)C(=O)NCCOCCOCC(=O)NCCCC[C@H](NC(=O)CNC(=O)[C@@H]1CSCC(=O)CSC[C@H](NC(=O)CN)C(=O)N[C@@H]([C@@H](C)O)C(=O)N[C@@H](CCCNC(=N)N)C(=O)N[C@@H](CCC(N)=O)C(=O)N[C@@H](Cc2ccc(O)cc2)C(=O)N2CCC[C@H]2C(=O)N1)C(=O)NCC(N)=O
